The record followed here is paper PMC9030254, “Target Hopping from Protein Kinases to PXR: Identification of Small-Molecule Protein Kinase Inhibitors as Selective Modulators of Pregnane X Receptor from TüKIC Library” (Cells, 2022).

Holding throughout (experiment): Kinase profiling
What all share (format): biochemical

One experiment has as its target T1, FER (Homo sapiens, UniProt P16591).
T1 construct: purchased ProQinase (Freiburg, Germany)
As for the experimental part:
(§1) The analysis was performed by ProQinase (Freiburg, Germany).

A further experiment concerns the target T2, SIK2 (Homo sapiens, UniProt Q9H0K1).
T2 construct: purchased ProQinase (Freiburg, Germany)
As for the experimental part:
as §1

A further experiment has as its target T3, PRK1 (Homo sapiens, UniProt Q16512).
T3 construct: purchased ProQinase (Freiburg, Germany)
Here is the method: as §1

The target of another experiment is T4, CDK4/CycD3 (Homo sapiens, UniProt P11802).
T4 construct: purchased ProQinase (Freiburg, Germany)
As for the experimental part:
as §1

In the next experiment the target is T5, GRK2 (Homo sapiens, UniProt P25098).
T5 construct: purchased ProQinase (Freiburg, Germany)
T5 sequence (P25098 1-689): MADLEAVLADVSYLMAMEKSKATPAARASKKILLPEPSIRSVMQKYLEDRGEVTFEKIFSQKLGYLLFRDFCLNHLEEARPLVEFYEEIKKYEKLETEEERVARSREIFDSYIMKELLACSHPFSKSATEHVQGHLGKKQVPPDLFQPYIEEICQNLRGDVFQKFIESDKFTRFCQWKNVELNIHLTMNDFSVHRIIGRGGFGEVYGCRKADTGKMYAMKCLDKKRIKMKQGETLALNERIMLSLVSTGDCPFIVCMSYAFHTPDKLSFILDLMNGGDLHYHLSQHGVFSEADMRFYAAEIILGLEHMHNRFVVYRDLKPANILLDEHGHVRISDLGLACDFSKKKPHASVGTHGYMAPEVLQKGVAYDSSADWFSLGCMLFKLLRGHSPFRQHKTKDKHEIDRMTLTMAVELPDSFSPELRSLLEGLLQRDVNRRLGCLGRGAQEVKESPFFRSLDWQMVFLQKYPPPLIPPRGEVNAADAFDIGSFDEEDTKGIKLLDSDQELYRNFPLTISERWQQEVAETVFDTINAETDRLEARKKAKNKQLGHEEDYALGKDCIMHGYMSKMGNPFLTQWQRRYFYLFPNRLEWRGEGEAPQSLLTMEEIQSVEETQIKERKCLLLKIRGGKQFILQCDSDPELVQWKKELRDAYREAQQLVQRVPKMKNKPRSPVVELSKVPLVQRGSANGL
Here is the method: as §1

In the next experiment the target is T6, PKCalpha (Homo sapiens, UniProt P17252).
T6 construct: purchased ProQinase (Freiburg, Germany)
Here is the method:
as §1

A further experiment has as its target T7, EIF2AK3 (Homo sapiens, UniProt Q9NZJ5).
T7 construct: purchased ProQinase (Freiburg, Germany)
T7 sequence (Q9NZJ5 30-1116): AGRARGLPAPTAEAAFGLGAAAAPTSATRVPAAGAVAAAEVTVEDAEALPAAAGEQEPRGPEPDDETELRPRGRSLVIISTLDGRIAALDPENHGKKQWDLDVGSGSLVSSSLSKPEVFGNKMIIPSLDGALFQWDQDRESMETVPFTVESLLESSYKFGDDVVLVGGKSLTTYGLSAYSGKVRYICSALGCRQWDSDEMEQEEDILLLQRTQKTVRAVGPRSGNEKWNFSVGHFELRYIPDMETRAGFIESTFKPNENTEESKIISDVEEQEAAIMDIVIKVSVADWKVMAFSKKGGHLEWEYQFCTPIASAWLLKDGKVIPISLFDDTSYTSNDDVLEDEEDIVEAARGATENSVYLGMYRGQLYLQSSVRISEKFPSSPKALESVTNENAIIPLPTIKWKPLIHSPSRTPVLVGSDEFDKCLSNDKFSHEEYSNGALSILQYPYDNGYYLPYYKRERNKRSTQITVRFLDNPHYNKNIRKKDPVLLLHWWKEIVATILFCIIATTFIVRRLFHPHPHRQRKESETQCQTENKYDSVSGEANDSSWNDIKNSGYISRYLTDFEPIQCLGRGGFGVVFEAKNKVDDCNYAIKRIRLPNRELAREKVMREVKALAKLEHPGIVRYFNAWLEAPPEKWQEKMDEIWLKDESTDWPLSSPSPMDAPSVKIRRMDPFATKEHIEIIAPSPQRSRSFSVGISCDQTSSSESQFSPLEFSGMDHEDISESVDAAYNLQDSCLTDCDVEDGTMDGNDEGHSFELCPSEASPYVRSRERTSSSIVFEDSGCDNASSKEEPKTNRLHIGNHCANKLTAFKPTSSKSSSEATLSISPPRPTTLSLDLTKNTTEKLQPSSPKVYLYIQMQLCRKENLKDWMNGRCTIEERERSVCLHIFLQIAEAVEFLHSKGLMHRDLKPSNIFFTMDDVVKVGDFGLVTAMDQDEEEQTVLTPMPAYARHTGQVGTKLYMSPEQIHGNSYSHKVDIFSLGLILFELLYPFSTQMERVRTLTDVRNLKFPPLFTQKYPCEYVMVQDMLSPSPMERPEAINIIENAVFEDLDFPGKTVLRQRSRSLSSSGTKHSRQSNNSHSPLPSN
As for the experimental part:
as §1

The target in another experiment is T8, CK1alpha1 (Homo sapiens, UniProt P48729).
T8 construct: purchased ProQinase (Freiburg, Germany)
Here is the method: as §1

The target of a further experiment is T9, FYN (Homo sapiens, UniProt P06241).
T9 construct: purchased ProQinase (Freiburg, Germany)
As for the experimental part: as §1

The next experiment has as its target T10, CAMK2B (Homo sapiens, UniProt Q13554).
T10 construct: purchased ProQinase (Freiburg, Germany)
Here is the method: as §1

The next experiment deals with T11, AKT1 (Homo sapiens, UniProt P31749).
T11 construct: purchased ProQinase (Freiburg, Germany)
As for the experimental part: as §1

Another experiment deals with T12, NEK2 (Homo sapiens, UniProt P51955).
T12 construct: purchased ProQinase (Freiburg, Germany)
T12 sequence (P51955 1-445): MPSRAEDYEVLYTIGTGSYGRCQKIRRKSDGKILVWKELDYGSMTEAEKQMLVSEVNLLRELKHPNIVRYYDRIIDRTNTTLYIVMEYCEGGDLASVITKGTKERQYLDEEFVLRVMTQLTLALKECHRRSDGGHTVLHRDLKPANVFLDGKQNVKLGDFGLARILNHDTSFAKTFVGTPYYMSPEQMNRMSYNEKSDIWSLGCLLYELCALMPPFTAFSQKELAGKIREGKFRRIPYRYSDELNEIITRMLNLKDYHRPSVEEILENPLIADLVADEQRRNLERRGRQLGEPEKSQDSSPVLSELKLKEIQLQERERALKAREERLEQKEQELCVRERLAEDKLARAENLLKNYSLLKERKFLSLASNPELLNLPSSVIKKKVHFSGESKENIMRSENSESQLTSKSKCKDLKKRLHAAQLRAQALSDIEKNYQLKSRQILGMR
Here is the method:
as §1

T8 sequence (P48729 whole entry): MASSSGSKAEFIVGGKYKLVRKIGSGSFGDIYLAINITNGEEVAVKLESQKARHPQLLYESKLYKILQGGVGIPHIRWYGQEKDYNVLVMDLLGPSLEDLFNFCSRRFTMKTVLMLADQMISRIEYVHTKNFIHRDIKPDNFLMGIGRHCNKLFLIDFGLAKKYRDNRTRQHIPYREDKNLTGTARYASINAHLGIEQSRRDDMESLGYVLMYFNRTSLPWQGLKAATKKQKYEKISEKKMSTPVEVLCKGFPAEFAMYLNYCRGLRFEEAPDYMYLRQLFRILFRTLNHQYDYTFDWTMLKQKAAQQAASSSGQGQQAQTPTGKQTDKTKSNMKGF
T10 sequence (Q13554 whole entry): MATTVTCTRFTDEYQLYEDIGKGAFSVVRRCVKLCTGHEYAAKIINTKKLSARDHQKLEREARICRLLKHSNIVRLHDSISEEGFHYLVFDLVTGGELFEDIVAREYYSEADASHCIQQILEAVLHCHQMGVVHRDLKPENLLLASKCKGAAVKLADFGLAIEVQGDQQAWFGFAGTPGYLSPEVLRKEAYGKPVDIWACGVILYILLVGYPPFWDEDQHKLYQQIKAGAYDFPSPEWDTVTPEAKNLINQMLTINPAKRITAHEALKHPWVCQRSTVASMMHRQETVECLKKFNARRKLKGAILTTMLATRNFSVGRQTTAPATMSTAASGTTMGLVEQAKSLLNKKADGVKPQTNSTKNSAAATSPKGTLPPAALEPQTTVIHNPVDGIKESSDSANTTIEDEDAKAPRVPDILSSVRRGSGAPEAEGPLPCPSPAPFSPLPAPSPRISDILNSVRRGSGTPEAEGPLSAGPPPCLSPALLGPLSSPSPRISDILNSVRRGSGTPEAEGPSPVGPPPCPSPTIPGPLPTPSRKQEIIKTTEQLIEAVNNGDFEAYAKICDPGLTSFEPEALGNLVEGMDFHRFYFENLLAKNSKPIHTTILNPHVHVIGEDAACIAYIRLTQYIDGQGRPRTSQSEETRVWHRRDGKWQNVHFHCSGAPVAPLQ
T9 sequence (P06241 whole entry): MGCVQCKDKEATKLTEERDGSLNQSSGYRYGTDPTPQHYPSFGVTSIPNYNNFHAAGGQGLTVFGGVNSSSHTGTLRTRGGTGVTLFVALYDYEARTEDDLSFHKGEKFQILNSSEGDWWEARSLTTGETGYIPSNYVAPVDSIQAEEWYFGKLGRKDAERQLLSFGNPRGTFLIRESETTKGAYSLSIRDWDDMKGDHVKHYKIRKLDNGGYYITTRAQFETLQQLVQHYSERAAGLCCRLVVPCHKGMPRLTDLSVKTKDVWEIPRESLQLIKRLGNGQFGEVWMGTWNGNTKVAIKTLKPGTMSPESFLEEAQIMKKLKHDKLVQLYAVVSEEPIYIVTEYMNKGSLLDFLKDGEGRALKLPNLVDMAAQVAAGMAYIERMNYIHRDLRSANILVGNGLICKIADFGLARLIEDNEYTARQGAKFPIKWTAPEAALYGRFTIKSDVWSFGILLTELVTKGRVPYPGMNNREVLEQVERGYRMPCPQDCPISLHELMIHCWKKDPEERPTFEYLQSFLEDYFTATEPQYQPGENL
T11 sequence (P31749 whole entry): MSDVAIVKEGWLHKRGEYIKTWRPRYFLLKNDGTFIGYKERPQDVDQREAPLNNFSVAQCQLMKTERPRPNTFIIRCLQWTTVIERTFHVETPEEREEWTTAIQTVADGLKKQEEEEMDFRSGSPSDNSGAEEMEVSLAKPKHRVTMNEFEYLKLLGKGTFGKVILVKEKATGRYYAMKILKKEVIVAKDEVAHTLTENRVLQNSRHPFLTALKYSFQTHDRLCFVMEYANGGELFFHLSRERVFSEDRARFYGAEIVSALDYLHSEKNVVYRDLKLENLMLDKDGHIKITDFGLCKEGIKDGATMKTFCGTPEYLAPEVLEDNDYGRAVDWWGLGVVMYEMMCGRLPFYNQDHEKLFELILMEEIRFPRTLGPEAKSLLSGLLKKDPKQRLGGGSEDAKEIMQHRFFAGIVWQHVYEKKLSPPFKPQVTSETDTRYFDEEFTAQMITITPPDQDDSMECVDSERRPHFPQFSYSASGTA
T4 sequence (P11802 whole entry): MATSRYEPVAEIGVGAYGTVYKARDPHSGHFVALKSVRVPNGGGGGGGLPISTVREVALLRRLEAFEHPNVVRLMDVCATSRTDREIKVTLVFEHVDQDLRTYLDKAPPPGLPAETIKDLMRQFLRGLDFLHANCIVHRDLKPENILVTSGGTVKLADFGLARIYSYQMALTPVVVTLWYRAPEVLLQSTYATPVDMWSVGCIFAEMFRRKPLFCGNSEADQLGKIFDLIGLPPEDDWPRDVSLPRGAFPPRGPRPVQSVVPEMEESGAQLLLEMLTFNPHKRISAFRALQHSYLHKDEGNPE
T4 sequence (P30281 whole entry partner): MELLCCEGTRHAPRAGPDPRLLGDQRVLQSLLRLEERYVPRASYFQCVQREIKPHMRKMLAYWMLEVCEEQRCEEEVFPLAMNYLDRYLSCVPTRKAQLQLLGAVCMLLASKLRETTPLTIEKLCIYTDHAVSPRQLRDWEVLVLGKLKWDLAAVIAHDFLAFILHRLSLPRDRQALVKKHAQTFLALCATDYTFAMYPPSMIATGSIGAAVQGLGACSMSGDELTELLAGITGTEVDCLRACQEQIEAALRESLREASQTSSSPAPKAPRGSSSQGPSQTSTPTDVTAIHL
T1 sequence (P16591 whole entry): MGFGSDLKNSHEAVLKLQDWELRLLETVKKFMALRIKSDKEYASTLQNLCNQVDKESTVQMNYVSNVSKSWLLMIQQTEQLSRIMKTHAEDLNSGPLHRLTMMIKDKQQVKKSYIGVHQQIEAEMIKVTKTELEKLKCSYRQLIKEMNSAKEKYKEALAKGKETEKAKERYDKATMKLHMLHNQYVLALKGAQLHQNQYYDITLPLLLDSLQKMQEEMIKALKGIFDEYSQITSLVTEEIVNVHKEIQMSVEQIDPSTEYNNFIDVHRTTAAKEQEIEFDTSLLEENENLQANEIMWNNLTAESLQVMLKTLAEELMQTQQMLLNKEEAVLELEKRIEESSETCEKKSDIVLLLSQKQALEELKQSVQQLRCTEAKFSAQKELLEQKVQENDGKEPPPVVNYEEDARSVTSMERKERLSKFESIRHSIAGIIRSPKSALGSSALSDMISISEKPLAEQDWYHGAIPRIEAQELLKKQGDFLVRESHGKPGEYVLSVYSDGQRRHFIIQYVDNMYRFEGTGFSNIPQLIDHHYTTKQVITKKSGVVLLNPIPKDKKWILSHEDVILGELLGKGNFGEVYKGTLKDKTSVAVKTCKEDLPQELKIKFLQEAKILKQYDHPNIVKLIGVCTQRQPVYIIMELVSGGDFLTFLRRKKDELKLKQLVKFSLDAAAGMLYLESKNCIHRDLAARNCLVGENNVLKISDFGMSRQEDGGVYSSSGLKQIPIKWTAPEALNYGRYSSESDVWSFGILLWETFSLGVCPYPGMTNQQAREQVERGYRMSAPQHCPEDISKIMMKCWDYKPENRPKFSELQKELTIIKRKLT

With `O=C(Cc1ccccc1)Nc1ccc(F)c(Nc2ccc3c(c2)CCCCC3=O)c1` [Compound 100], the Residual activity at FER (1.0E-05 M) is recorded as 94 % of control; at FER (1.0E-06 M), 101 % of control; at SIK2 (1.0E-05 M), 81 % of control; at SIK2 (1.0E-06 M), 89 % of control; at PRK1 (1.0E-05 M), 101 % of control; at PRK1 (1.0E-06 M), 112 % of control. Moreover, the Residual activity at CDK4/CycD3 (1.0E-05 M) is recorded as 89 % of control; on CDK4/CycD3 (1.0E-06 M) it was 93 % of control; at GRK2 (1.0E-05 M), 97 % of control; at GRK2 (1.0E-06 M) it was 97 % of control; at PKCalpha (1.0E-05 M) it was 82 % of control; at PKCalpha (1.0E-06 M), 95 % of control. The Residual activity at EIF2AK3 (1.0E-05 M) is recorded as 102 % of control; on EIF2AK3 (1.0E-06 M) it was 94 % of control; on CK1alpha1 (1.0E-05 M), 108 % of control; at CK1alpha1 (1.0E-06 M), 112 % of control; at FYN (1.0E-05 M) it was 55 % of control; at FYN (1.0E-06 M), 90 % of control. In addition, the Residual activity is 115 % of control at CAMK2B (1.0E-05 M); 144 % of control at CAMK2B (1.0E-06 M); 88 % of control on AKT1 (1.0E-05 M); 99 % of control at AKT1 (1.0E-06 M); 97 % of control on NEK2 (1.0E-05 M); 105 % of control at NEK2 (1.0E-06 M).

Take `O=C(Nc1ccc(F)c(Nc2ccc3c(c2)CCCCC3=O)c1)c1cccc(F)c1` [Compound 109]: the Residual activity on FER (1.0E-05 M) was 90 % of control; on FER (1.0E-06 M) it was 110 % of control; on SIK2 (1.0E-05 M), 82 % of control; on SIK2 (1.0E-06 M), 93 % of control; at PRK1 (1.0E-05 M), 101 % of control; on PRK1 (1.0E-06 M), 94 % of control. Moreover, the Residual activity on CDK4/CycD3 (1.0E-05 M) is listed as 89 % of control; at CDK4/CycD3 (1.0E-06 M), 94 % of control; on GRK2 (1.0E-05 M) it was 88 % of control; at GRK2 (1.0E-06 M) it was 84 % of control; on PKCalpha (1.0E-05 M), 73 % of control; at PKCalpha (1.0E-06 M), 92 % of control. Further, the Residual activity is on record as 92 % of control on EIF2AK3 (1.0E-05 M); 93 % of control on EIF2AK3 (1.0E-06 M); 102 % of control at CK1alpha1 (1.0E-05 M); 108 % of control on CK1alpha1 (1.0E-06 M); 83 % of control at FYN (1.0E-05 M); 104 % of control on FYN (1.0E-06 M). Further, the Residual activity at CAMK2B (1.0E-05 M) was 104 % of control; on CAMK2B (1.0E-06 M), 132 % of control; at AKT1 (1.0E-05 M), 97 % of control; on AKT1 (1.0E-06 M) it was 101 % of control; at NEK2 (1.0E-05 M) it was 101 % of control; on NEK2 (1.0E-06 M), 96 % of control.
